Data from ChEMBL document CHEMBL3046638, “Synthesis and anticonvulsant activity of novel imidazol5(4H)one and 5-oxo-4,5-dihydroimidazol-1-yl)propanamide derivatives” (Med Chem Res, 2012).

Tests used:
Mus musculus [1] = test: Anticonvulsant activity in Mus musculus albino (mouse) assessed as protection against maximal electroshock-induced seizures at 100 mg/kg, po after 1 hr relative to phenytoin; assay type: functional
Mus musculus [2] = test: Anticonvulsant activity in Mus musculus albino (mouse) assessed as protection against maximal electroshock-induced seizures at 100 mg/kg, po after 1 hr; assay type: functional
Mus musculus [3] = test: Neurotoxicity in Mus musculus albino (mouse) assessed as stability time on rotorod at 100 mg/kg, po after 30 min; assay type: toxicity, organism-based; design: dose 100 mg/kg, route oral; conditions: in vivo, 0.5 h

Row | SMILES | Activity (Mus musculus [1]) | Activity (Mus musculus [2]) | Time (Mus musculus [3])
1 | COc1ccc(C(=O)CNN2C(=O)/C(=C/c3ccc(F)cc3F)N=C2c2ccc(F)cc2)cc1 | 71.42% | – | –
2 | O=C(CNN1C(=O)/C(=C/c2ccc(F)cc2F)N=C1c1ccc(F)cc1)c1ccc(O)cc1 | 57.15% | – | –
3 | CC(C(=O)Nc1ccccc1)N1C(=O)/C(=C/c2ccc(F)cc2F)N=C1c1ccc(F)cc1 (centres undefined) | 24.77% | -0.94% | –
4 | CC(C(=O)Nc1ccc(C#N)cc1)N1C(=O)/C(=C/c2ccc(F)cc2F)N=C1c1ccc(F)cc1 (centres undefined) | 96.42% | – | 285 s
5 | COc1ccc(NC(=O)C(C)N2C(=O)/C(=C/c3ccc(F)cc3F)N=C2c2ccc(F)cc2)cc1 (centres undefined) | 96.42% | – | 219 s
6 | O=C(CNN1C(=O)/C(=C/c2ccc(F)cc2F)N=C1c1ccc(F)cc1)c1ccccc1 | 37.5% | 49.96% | –
7 | O=C(CNN1C(=O)/C(=C/c2ccc(F)cc2F)N=C1c1ccc(F)cc1)c1ccc([N+](=O)[O-])cc1 | 64.28% | – | –
8 | O=C(CNN1C(=O)/C(=C/c2ccc(F)cc2F)N=C1c1ccc(F)cc1)c1ccc(-c2ccccc2)cc1 | 96.42% | – | –
9 | Cc1ccc(C(=O)CNN2C(=O)/C(=C/c3ccc(F)cc3F)N=C2c2ccc(F)cc2)cc1 | 92.84% | – | 174 s
